# In the supplement of paper PMC10307832:
# Experiments:
# Assay in all cases: relative viability (nuclei count vs DMSO), 5 days (fraction); higher = more cells survive
# NCI-H1793 = test system: NCI-H1793
# Procedure, shortened: (§1)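 Relative viability is defined as nuclei in treated wells over nuclei in vehicle wells. Duplicate plates were run and medians reported. Lung cancer cell lines in 1536-well plates were dosed by pin tool one day after seeding, with one drug or with a fixed anchor-drug dose plus five library-drug doses (not always all listed) in √10 steps, and nuclei were counted after 5 days.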
# NCI-H1944 = test system: NCI-H1944
# Procedure, shortened: as §1
# NCI-H2087 = test system: NCI-H2087
# Procedure, shortened: as §1
# NCI-H2170 = test system: NCI-H2170
# Procedure, shortened: as §1
# NCI-H2228 = test system: NCI-H2228
# Procedure, shortened: as §1
# NCI-H2405 = test system: NCI-H2405
# Procedure, shortened: as §1
# NCI-H3122 = test system: NCI-H3122
# Procedure, shortened: as §1
# NCI-H460 = test system: NCI-H460
# Procedure, shortened: as §1
# PC-3 [JPC-3] = test system: PC-3 [JPC-3]
# Procedure, shortened: as §1
# RERF-LC-KJ = test system: RERF-LC-KJ
# Procedure, shortened: as §1
# UMC-11 = test system: UMC-11
# Procedure, shortened: as §1
smiles,measurement,setting,value
Nc1ccn([C@@H]2O[C@H](CO)[C@@H](O)[C@@H]2O)c(=O)n1 [Cytarabine] + CC(=O)c1c(C)c2cnc(Nc3ccc(N4CCNCC4)cn3)nc2n(C2CCCC2)c1=O [Palbociclib] (partner 0.5 µM),relative viability,NCI-H1793; first compound 0.005 µM,0.341
same,relative viability,NCI-H1793; first compound 0.01581 µM,0.267
same,relative viability,NCI-H1793; first compound 0.05 µM,0.268
same,relative viability,NCI-H1793; first compound 0.1581 µM,0.228
same,relative viability,NCI-H1793; first compound 0.5 µM,0.262
same,relative viability,NCI-H1944; first compound 0.005 µM,0.283
same,relative viability,NCI-H1944; first compound 0.01581 µM,0.248
same,relative viability,NCI-H1944; first compound 0.05 µM,0.207
same,relative viability,NCI-H1944; first compound 0.1581 µM,0.205
same,relative viability,NCI-H1944; first compound 0.5 µM,0.16
same,relative viability,NCI-H2087; first compound 0.005 µM,0.23
same,relative viability,NCI-H2087; first compound 0.01581 µM,0.215
same,relative viability,NCI-H2087; first compound 0.05 µM,0.231
same,relative viability,NCI-H2087; first compound 0.1581 µM,0.167
same,relative viability,NCI-H2087; first compound 0.5 µM,0.205
same,relative viability,NCI-H2170; first compound 0.005 µM,0.369
same,relative viability,NCI-H2170; first compound 0.01581 µM,0.266
same,relative viability,NCI-H2170; first compound 0.05 µM,0.26
same,relative viability,NCI-H2170; first compound 0.1581 µM,0.177
same,relative viability,NCI-H2170; first compound 0.5 µM,0.186
same,relative viability,NCI-H2228; first compound 0.005 µM,0.445
same,relative viability,NCI-H2228; first compound 0.01581 µM,0.343
same,relative viability,NCI-H2228; first compound 0.05 µM,0.215
same,relative viability,NCI-H2228; first compound 0.1581 µM,0.131
same,relative viability,NCI-H2228; first compound 0.5 µM,0.116
same,relative viability,NCI-H2405; first compound 0.005 µM,0.518
same,relative viability,NCI-H2405; first compound 0.01581 µM,0.449
same,relative viability,NCI-H2405; first compound 0.05 µM,0.367
same,relative viability,NCI-H2405; first compound 0.1581 µM,0.275
same,relative viability,NCI-H2405; first compound 0.5 µM,0.234
same,relative viability,NCI-H3122; first compound 0.005 µM,0.188
same,relative viability,NCI-H3122; first compound 0.01581 µM,0.389
same,relative viability,NCI-H3122; first compound 0.05 µM,0.122
same,relative viability,NCI-H3122; first compound 0.1581 µM,0.126
same,relative viability,NCI-H3122; first compound 0.5 µM,0.113
same,relative viability,NCI-H460; first compound 0.005 µM,0.156
same,relative viability,NCI-H460; first compound 0.01581 µM,0.0617
same,relative viability,NCI-H460; first compound 0.05 µM,0.0499
same,relative viability,NCI-H460; first compound 0.1581 µM,0.0475
same,relative viability,NCI-H460; first compound 0.5 µM,0.044
same,relative viability,PC-3 [JPC-3]; first compound 0.005 µM,0.546
same,relative viability,PC-3 [JPC-3]; first compound 0.01581 µM,0.479
same,relative viability,PC-3 [JPC-3]; first compound 0.05 µM,0.489
same,relative viability,PC-3 [JPC-3]; first compound 0.1581 µM,0.459
same,relative viability,PC-3 [JPC-3]; first compound 0.5 µM,0.463
same,relative viability,RERF-LC-KJ; first compound 0.005 µM,0.858
same,relative viability,RERF-LC-KJ; first compound 0.01581 µM,0.882
same,relative viability,RERF-LC-KJ; first compound 0.05 µM,0.819
same,relative viability,RERF-LC-KJ; first compound 0.1581 µM,0.517
same,relative viability,RERF-LC-KJ; first compound 0.5 µM,0.41
same,relative viability,UMC-11; first compound 0.005 µM,0.371
same,relative viability,UMC-11; first compound 0.01581 µM,0.304
same,relative viability,UMC-11; first compound 0.05 µM,0.263
same,relative viability,UMC-11; first compound 0.1581 µM,0.236
same,relative viability,UMC-11; first compound 0.5 µM,0.219
